In US4039663A, “Daunomycins, process for their uses and intermediates” (Societa' Farmaceutici Italia S.p.A., priority 1975, dated 1977):
Values after ≈ are worked out from the molar mass of the structure shown. Where two headings read alike, the source gives them in different places.

Columns and labels:
[1] = test system: HeLa cells; assay: Proliferative activity (colony counts) of cultured HeLa cells at different exposure times; type: cell-based; conditions: Homo sapiens; for IC50: read-out: ID50 (50% inhibition of colonies); for activity at 0.025 µg/mL: 0.025 μg/ml; for activity at 0.05 µg/mL: 0.05 μg/ml; for activity at 0.1 µg/mL: 0.1 μg/ml; for activity at 0.25 µg/mL: 0.25 μg/ml; for activity at 0.5 µg/mL: 0.5 μg/ml; for activity at 1 µg/mL: 1 μg/ml
Source text: (§1) Tests in vitro on the effect of compounds (VI) and (VII) on the micotic index and the proliferative activity of cultured HeLa cells at different exposure times. The results in Table 4 are expressed as a percent of the untreated controls. The ID50 represents the dose which gives a 50% inhibition of colonies.

[2] = Cell proliferation in cultured mice fibroblasts infected with Moloney Sarcoma Virus; type: cell-based, mouse; conditions: mouse, embryo fibroblasts; 3 days treatment; read-out: Cell Proliferation ID50 (B)
Method: (§2) The test compounds were evaluated on mouse embryo fibroblast cultures infected with MSV. After a treatment of three days, the inhibiting doses (ID50) were evaluated on cell proliferation and on MSV foci formation.
(§3) Effect of compounds (VI and (VII) on foci formation and on cell proliferation in cultured mice fibroblasts infected with Moloney Sarcoma Virus. (3 days treatment)

[3] = test system: Moloney Sarcoma Virus; assay: Foci formation by Moloney Sarcoma Virus in mouse embryo fibroblast cultures; type: cell-based; conditions: for IC50 / activity at 0.0062 µg/mL / activity at 0.025 µg/mL / activity at 0.1 µg/mL / activity at 0.4 µg/mL: Fibroblast, 72 h, 3 days treatment; for IC50: read-out: Foci Formation ID50 (A); for B/A: ratio ID50 cell proliferation (B) / ID50 foci formation (A), 4320 min; for activity at 0.0062 µg/mL: 0.0062 μg/ml; for activity at 0.0062 µg/mL / activity at 0.025 µg/mL / activity at 0.1 µg/mL / activity at 0.4 µg/mL: read-out: Foci Formation (% of controls); for activity at 0.025 µg/mL: 0.025 μg/ml; for activity at 0.1 µg/mL: 0.1 μg/ml; for activity at 0.4 µg/mL: 0.4 μg/ml
Method: as §2, §3

[4] = test system: a number of experimental tumors; assay: Antitumor activity on experimental tumors in mice (summary); type: in vivo; conditions: mean survival time, non-toxic doses
Method: (§4) The antitumor activity of the novel antibiotic compounds of the invention, i.e., 4'-epi-daunomycin (VI) and 4'-epidaunomycin, β-anomer, (VII) was evaluated on several transplanted tumors in mice, and in in vitro tests, in comparison with the known antitumor agent daunomycin (IV).

[5] = test system: HeLa cells; assay: Micotic index of cultured HeLa cells at different exposure times; type: cell-based; conditions: Homo sapiens; for activity at 0.025 µg/mL: 0.025 μg/ml; for activity at 0.05 µg/mL: 0.05 μg/ml; for activity at 0.1 µg/mL: 0.1 μg/ml; for activity at 0.25 µg/mL: 0.25 μg/ml; for activity at 0.5 µg/mL: 0.5 μg/ml; for activity at 1 µg/mL: 1 μg/ml
Source text: as §1

[6] = test system: oncogenic viruses; assay: Cell transformation induced by oncogenic viruses (summary); type: cell-based
Method: as §4

[7] = test system: mouse embryo fibroblast cultures infected with MSV; assay: Cell proliferation in cultured mice fibroblasts infected with Moloney Sarcoma Virus; type: cell-based; conditions: Mus musculus, Fibroblast, 72 h, 3 days treatment, read-out: Cell Proliferation (% of controls); for activity at 0.0062 µg/mL: 0.0062 μg/ml; for activity at 0.025 µg/mL: 0.025 μg/ml; for activity at 0.1 µg/mL: 0.1 μg/ml; for activity at 0.4 µg/mL: 0.4 μg/ml
Method: as §2, §3

[8] = test system: cultured cells; assay: Inhibition of cell mitosis and proliferation in cultured cells (summary); type: cell-based; conditions: cultured cells in vitro
Method: as §4

[9] = test system: ASCITES SARCOMA 180; assay: Action on ascites sarcoma 180 in mice; type: in vivo, mice (Swiss CD 1); conditions: for Average Survival Time (%): 1 day after inoculation, untreated = 100%
Method: The tests were carried out on groups of 10 female mice (Swiss CD 1). The compounds under examination were administered intraperitoneally in varying doses to the test animals 1 day after intraperitoneal inoculation with 1 × 10^6 tumor cells per animal. The average survival time is given in Table 1 as a percentage of the survival time of untreated animals, which is arbitrarily designated as 100%. Also given in Table 1 are the number of long term survivors.

[10] = test system: TR[…] LEUKEMIA; assay: Transplanted Gross leukemia in mice; type: in vivo, Inbred C3 H female mice; conditions: first to fifth day, control = 100
Source text: Inbred C3 H female mice were intravenously inoculated with a suspension of leukemia lymphonodes and spleen cells (2.5 × 10^6 leukemia cells/mouse) and treated, intravenously, from the first to the fifth day after inoculation with the compounds under examination.

[11] = test system: single myocardial cells isolated from the hearts of newborn mice
Method: The cardiotoxic activity of compound (VI) was evaluated in vitro on single myocardial cells isolated by trypsinization from the hearts of newborn mice (Necco A., Dasdia T. IRCS, 2: 1293, 1974). After 3-4 days, the cell cultures, showing clusters of beating cells, are studied both as to frequency and rhythym.

[12] = 2h, value marked * Metaphasic block

SMILES: COc1cccc2c1C(=O)c1c(O)c3c(c(O)c1C2=O)C[C@@](O)(C(C)=O)C[C@@H]3O[C@H]1C[C@H](N)[C@H](O)[C@H](C)O1 [IV, 7-O-(3'-amino-2',3',6'-trideoxy-α-L-lyxohexopyranosyl)-daunomycin-one, reference compound]
- IC50 ([1]; 2h exposure): 0.098 µg/mL (≈ 0.186 µM)
- IC50 ([1]; 8h exposure): 0.036 µg/mL (≈ 0.0682 µM)
- IC50 ([1]; 24h exposure): 0.021 µg/mL (≈ 0.0398 µM)
- CC50 at 72 h [2]: 0.0086 µg/mL (≈ 0.0163 µM)
- IC50 [3]: 0.006 µg/mL (≈ 0.0114 µM)
- B/A [3]: 1.4

SMILES: COc1cccc2c1C(=O)c1c(O)c3c(c(O)c1C2=O)C[C@@](O)(C(C)=O)C[C@@H]3O[C@H]1C[C@H](N)[C@@H](O)[C@H](C)O1 [VI, 7-0-(3'-amino-2',3',6'-trideoxy-α-L-arabinohexopyranosyl)-daunomycinone]
- activity at 0.025 µg/mL ([1]; 2h): 113%
- activity at 0.025 µg/mL ([1]; 8h): 88%
- activity at 0.025 µg/mL ([1]; 24h): 48%
- activity at 0.05 µg/mL ([1]; 2h): 115%
- activity at 0.05 µg/mL ([1]; 8h): 56%
- activity at 0.05 µg/mL ([1]; 24h): 23%
- activity at 0.1 µg/mL ([1]; 2h): 77%
- activity at 0.1 µg/mL ([1]; 8h): 23%
- activity at 0.1 µg/mL ([1]; 24h): 3%
- IC50 ([1]; 2h exposure): 0.16 µg/mL (≈ 0.303 µM)
- IC50 ([1]; 8h exposure): 0.056 µg/mL (≈ 0.106 µM)
- IC50 ([1]; 24h exposure): 0.027 µg/mL (≈ 0.0512 µM)
- antitumor activity in mice [4]: increase in the mean survival time at non-toxic doses
- activity at 0.025 µg/mL [5, 12]: 226%
- activity at 0.025 µg/mL ([5]; 4h): 100%
- activity at 0.025 µg/mL ([5]; 8h): 117%
- activity at 0.05 µg/mL [5, 12]: 189%
- activity at 0.05 µg/mL ([5]; 4h): 103%
- activity at 0.05 µg/mL ([5]; 8h): 122%
- activity at 0.1 µg/mL ([5]; 2h): 79%
- activity at 0.1 µg/mL ([5]; 4h): 140%
- activity at 0.1 µg/mL ([5]; 8h): 0%
- activity on cell transformation induced by oncogenic viruses [6]: substantial activity on cell transformation induced by oncogenic viruses
- activity at 0.0062 µg/mL [7]: 75%
- activity at 0.025 µg/mL [7]: 23%
- activity at 0.1 µg/mL [7]: 14%
- activity at 0.4 µg/mL [7]: 1%
- CC50 at 72 h [2]: 0.013 µg/mL (≈ 0.0246 µM)
- activity at 0.0062 µg/mL [3]: 51%
- activity at 0.025 µg/mL [3]: 0%
- activity at 0.1 µg/mL [3]: 0%
- activity at 0.4 µg/mL [3]: 0%
- IC50 [3]: 0.006 µg/mL (≈ 0.0114 µM)
- B/A [3]: 2.1
- inhibition of cell mitosis and proliferative activity [8]: powerful inhibitors of cell mitosis and proliferative activity in cultured cells in vitro
- Long Term Survivors after 60 days ([9]; 0.22 mg/kg i.p.): 1/10
- Average Survival Time (%) ([9]; 0.22 mg/kg i.p.): 111.1%
- Long Term Survivors after 60 days ([9]; 1.1 mg/kg i.p.): 1/10
- Average Survival Time (%) ([9]; 1.1 mg/kg i.p.): 120.8%
- Long Term Survivors after 60 days ([9]; 5.7 mg/kg i.p.): 0/10
- Average Survival Time (%) ([9]; 5.7 mg/kg i.p.): 174.5%
- Average Survival Time (%) ([10]; 1.5 mg/kg daily i.v.): 115%
- Average Survival Time (%) ([10]; 2.25 mg/kg daily i.v.): 143%
- Average Survival Time (%) ([10]; 3 mg/kg daily i.v.): 162%
- Average Survival Time (%) ([10]; 3.75 mg/kg daily i.v.): 122%
- Average Survival Time (%) ([10]; 4.5 mg/kg daily i.v.): 120%
- cardiotoxic activity [11]: lower than that of daunomycin (IV)

SMILES: COc1cccc2c1C(=O)c1c(O)c3c(c(O)c1C2=O)C[C@@](O)(C(C)=O)C[C@@H]3O[C@@H]1C[C@H](N)[C@@H](O)[C@H](C)O1 [VII, 7-O-(3'-amino-2',3',6'-trideoxy-β-L-arabinohexopyranosyl)-daunomycinone]
- activity at 0.25 µg/mL ([1]; 2h): 108%
- activity at 0.25 µg/mL ([1]; 8h): 86%
- activity at 0.25 µg/mL ([1]; 24h): 70%
- activity at 0.5 µg/mL ([1]; 2h): 101%
- activity at 0.5 µg/mL ([1]; 8h): 37%
- activity at 0.5 µg/mL ([1]; 24h): 18%
- activity at 1 µg/mL ([1]; 2h): 98%
- activity at 1 µg/mL ([1]; 8h): 17%
- activity at 1 µg/mL ([1]; 24h): 6%
- IC50 ([1]; 2h exposure): > 1 µg/mL
- IC50 ([1]; 8h exposure): 0.47 µg/mL (≈ 0.891 µM)
- IC50 ([1]; 24h exposure): 0.33 µg/mL (≈ 0.626 µM)
- antitumor activity in mice [4]: increase in the mean survival time at non-toxic doses
- activity at 0.25 µg/mL ([5]; 2h): 137%
- activity at 0.25 µg/mL ([5]; 4h): 103%
- activity at 0.25 µg/mL ([5]; 8h): 85%
- activity at 0.5 µg/mL ([5]; 2h): 95%
- activity at 0.5 µg/mL ([5]; 4h): 67%
- activity at 0.5 µg/mL ([5]; 8h): 88%
- activity at 1 µg/mL ([5]; 2h): 52%
- activity at 1 µg/mL ([5]; 4h): 40%
- activity at 1 µg/mL ([5]; 8h): 0%
- activity on cell transformation induced by oncogenic viruses [6]: substantial activity on cell transformation induced by oncogenic viruses
- activity at 0.0062 µg/mL [7]: 87%
- activity at 0.025 µg/mL [7]: 80%
- activity at 0.1 µg/mL [7]: 28%
- activity at 0.4 µg/mL [7]: 14%
- CC50 at 72 h [2]: 0.064 µg/mL (≈ 0.121 µM)
- activity at 0.0062 µg/mL [3]: 48%
- activity at 0.025 µg/mL [3]: 44%
- activity at 0.1 µg/mL [3]: 5%
- activity at 0.4 µg/mL [3]: 0%
- IC50 [3]: 0.01 µg/mL (≈ 0.019 µM)
- B/A [3]: 6.4
- inhibition of cell mitosis and proliferative activity [8]: powerful inhibitors of cell mitosis and proliferative activity in cultured cells in vitro
- Long Term Survivors after 60 days ([9]; 0.26 mg/kg i.p.): 0/10
- Average Survival Time (%) ([9]; 0.26 mg/kg i.p.): 96.6%
- Long Term Survivors after 60 days ([9]; 1.3 mg/kg i.p.): 1/10
- Average Survival Time (%) ([9]; 1.3 mg/kg i.p.): 114.8%
- Long Term Survivors after 60 days ([9]; 6.7 mg/kg i.p.): 1/10
- Average Survival Time (%) ([9]; 6.7 mg/kg i.p.): 118.6%
- Average Survival Time (%) ([10]; 1.5 mg/kg daily i.v.): 106%
- Average Survival Time (%) ([10]; 2.25 mg/kg daily i.v.): 102%
- Average Survival Time (%) ([10]; 3 mg/kg daily i.v.): 121%
